Measurements from patent EP4389751A1, “HETEROCYCLIC COMPOUNDS AND USES THEREOF” (Kumquat Biosciences Inc., priority 2021, dated 2024).
pIC50: −log10 of the molar value.

Assays:
A549 cells = assay: Cell proliferation assay (CellTiter-Glo), K-Ras G12S cells; format: cell-based
How it was run: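 A549 cells (K-Ras G12S) in RPMI-1640 with 10% FBS, seeded in standard or ultra-low-attachment plates and dosed next day with a 10-point 3-fold series. Viability read about 6 days later by CellTiter-Glo luminescence. IC50 from four-parameter fit.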

K-Ras G12S = biological target: T1, K-Ras G12S (Homo sapiens, UniProt P01116, G12S); assay: HTRF assay of the K-Ras / SOS1 interaction; format: biochemical; details: IC50 (against K-Ras G12D) to IC50 (against K-Ras G12S)
T1 construct: made in house; host or cells: E. coli (e.g., BL21 (DE3))
How it was run: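 Compounds (duplicates, 10 µM to 0.01 µM) were incubated ≥~10 min with Eu-labelled GST-K-Ras G12S and XL665-labelled His-hSOS1 in HEPES pH 7.4 buffer containing NaCl, DTT, BSA and Igepal. Disruption measured as HTRF emission ratio 665/620 nm, fitted to IC50.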

T1 sequence (P01116 1-188 isoform P01116-2 G12S): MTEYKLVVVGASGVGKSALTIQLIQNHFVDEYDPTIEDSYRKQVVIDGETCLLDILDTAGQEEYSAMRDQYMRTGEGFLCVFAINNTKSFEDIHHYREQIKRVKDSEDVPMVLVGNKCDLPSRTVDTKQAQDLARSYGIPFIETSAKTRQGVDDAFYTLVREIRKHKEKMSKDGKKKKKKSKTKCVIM

- pIC50 (A549 cells; Homo sapiens, A549, A549 cells (K-Ras G12S), bin ≤ 500 nM, read-out: Inhibition of A549 Cells (IC50)): ≥ 6.30
- ratio of IC50 against a G12D cell line to IC50 against a G12S cell line (A549 cells; K-Ras G12D cell line such as GP2D relative to K-Ras G12S cell line such as A549, greater than 1, 2, 3, 4, 5, 10, 15 or even greater, 8640 min): greater than 1
Compound: Cc1ncn(C(=O)N2CC3CCN(c4nc(OC[C@@]56CCCN5C[C@H](F)C6)nc5c(F)c(-c6ccc(F)c7sc(N)c(C#N)c67)c(Cl)cc45)C3C2)n1 (stereo partly drawn) [Compound A304, 2-amino-4-(6-chloro-8-fluoro-2-(((2R,7aS)-2-fluorotetrahydro-1H-pyrrolizin-7a(5H)-yl)methoxy)-4-(5-(3-methyl-1 H-1,2,4-triazole-1-carbonyl)hexahydropyrrolo[3,4-b]pyrrol-1(2H)-yl)quinazolin-7-yl)-7-fluorobenzo[b]thiophene-3-carbonitrile]
- Ratio of IC50 KRAS G12D vs. IC50 KRAS G12S (K-Ras G12S): A (A: indicates that the ratio of IC50 against KrasG12D vs. IC50 against KrasG12S is 1-fold or greater)
